Measured values: ChEMBL document CHEMBL4219137, “A novel templates of piperazinyl-1,2-dihydroquinoline-3-carboxylates: Synthesis, anti-microbial evaluation and molecular docking studies” (Bioorg Med Chem Lett, 2018)
Values after ≈ are worked out from the molar mass of the structure shown.

These molecules were tested on Bacillus subtilis (assay: Antibacterial activity against gram-positive Bacillus subtilis MTCC 121 after 24 hrs by agar well diffusion method). Conditions: MTCC 121, 24 h.
Format: functional
For `CCOC(=O)c1c(N2CCN(c3ccccc3F)CC2)c2ccccc2n(C)c1=O`, the MIC was 3.9 µg/mL (≈ 9.52 µM).
`CCOC(=O)c1c(N2CCN(c3ccc(F)cc3)CC2)c2ccccc2n(CC)c1=O` gave an MIC of 3.9 µg/mL (≈ 9.21 µM).
Molecule `CCOC(=O)c1c(N2CCN(c3ccccc3C(F)(F)F)CC2)c2ccccc2n(CC)c1=O` has an MIC of 7.8 µg/mL (≈ 16.5 µM).
`O=C(O)c1cn(C2CC2)c2cc(N3CCNCC3)c(F)cc2c1=O` [CIPROFLOXACIN] showed an MIC of 0.9 µg/mL (≈ 2.72 µM).

Each molecule was assayed on Staphylococcus aureus (assay: Antibacterial activity against gram-positive Staphylococcus aureus MTCC 96 after 24 hrs by agar well diffusion method). Conditions: MTCC 96, 24 h.
Format: functional
For `CCOC(=O)c1c(N2CCN(c3ccccc3F)CC2)c2ccccc2n(C)c1=O`, the MIC was 3.9 µg/mL (≈ 9.52 µM).
`CCOC(=O)c1c(N2CCN(c3ccc(F)cc3)CC2)c2ccccc2n(CC)c1=O` showed an MIC of 3.9 µg/mL (≈ 9.21 µM).
For `CCOC(=O)c1c(N2CCN(c3ccccc3OC)CC2)c2ccccc2n(CC)c1=O`, the MIC was 3.9 µg/mL (≈ 8.95 µM).
With `CCOC(=O)c1c(N2CCN(C(=O)OC(C)(C)C)CC2)c2ccccc2n(C)c1=O` the MIC was 3.9 µg/mL (≈ 9.39 µM).
`CCOC(=O)c1c(N2CCN(c3ccccc3F)CC2)c2ccccc2n(CC)c1=O` gave an MIC of 3.9 µg/mL (≈ 9.21 µM).
Work on `O=C(O)c1cn(C2CC2)c2cc(N3CCNCC3)c(F)cc2c1=O` [CIPROFLOXACIN] yielded an MIC of 0.9 µg/mL (≈ 2.72 µM).

Each molecule was assayed on Staphylococcus aureus (assay: Antibacterial activity against gram-positive Staphylococcus aureus MLS-16 MTCC 2940 after 24 hrs by agar well diffusion method). Conditions: MLS-16 MTCC 2940, 24 h.
Format: functional
Work on `CCOC(=O)c1c(N2CCN(c3ccccc3F)CC2)c2ccccc2n(C)c1=O` yielded an MIC of 7.8 µg/mL (≈ 19 µM).
`CCOC(=O)c1c(N2CCN(c3ccc(F)cc3)CC2)c2ccccc2n(CC)c1=O` was tested, and the MIC was 3.9 µg/mL (≈ 9.21 µM).
`O=C(O)c1cn(C2CC2)c2cc(N3CCNCC3)c(F)cc2c1=O` [CIPROFLOXACIN] gave an MIC of 0.9 µg/mL (≈ 2.72 µM).

These molecules were tested on Micrococcus luteus (assay: Antibacterial activity against gram-positive Micrococcus luteus MTCC 2470 after 24 hrs by agar well diffusion method). Conditions: MTCC 2470, 24 h.
Format: functional
`CCOC(=O)c1c(N2CCN(c3ccccc3F)CC2)c2ccccc2n(C)c1=O` was tested, and the MIC was 3.9 µg/mL (≈ 9.52 µM).
With `CCOC(=O)c1c(N2CCN(c3ccc(F)cc3)CC2)c2ccccc2n(CC)c1=O` the MIC was 3.9 µg/mL (≈ 9.21 µM).
`O=C(O)c1cn(C2CC2)c2cc(N3CCNCC3)c(F)cc2c1=O` [CIPROFLOXACIN] showed an MIC of 0.9 µg/mL (≈ 2.72 µM).

The molecules below were run on Escherichia coli (assay: Antibacterial activity against gram-negative Escherichia coli MTCC 739 after 24 hrs by agar well diffusion method). Conditions: MTCC 739, 24 h.
Format: functional
Work on `CCOC(=O)c1c(N2CCN(c3ccccc3F)CC2)c2ccccc2n(C)c1=O` yielded an MIC of 3.9 µg/mL (≈ 9.52 µM).
For `CCOC(=O)c1c(N2CCN(c3ccc(F)cc3)CC2)c2ccccc2n(CC)c1=O`, the MIC was 3.9 µg/mL (≈ 9.21 µM).
For `CCOC(=O)c1c(N2CCN(c3ccccc3C(F)(F)F)CC2)c2ccccc2n(CC)c1=O`, the MIC was 7.8 µg/mL (≈ 16.5 µM).
In the case of `O=C(O)c1cn(C2CC2)c2cc(N3CCNCC3)c(F)cc2c1=O` [CIPROFLOXACIN], the MIC is reported as 0.9 µg/mL (≈ 2.72 µM).

The molecules below were run on Raoultella planticola (assay: Antibacterial activity against gram-negative Klebsiella planticola MTCC 530 after 24 hrs by agar well diffusion method). Conditions: MTCC 530, 24 h.
Format: functional
`CCOC(=O)c1c(N2CCN(c3ccc(F)cc3)CC2)c2ccccc2n(CC)c1=O` was tested, and the MIC was 3.9 µg/mL (≈ 9.21 µM).
For `CCOC(=O)c1c(N2CCN(c3ccccc3F)CC2)c2ccccc2n(CC)c1=O`, the MIC was 7.8 µg/mL (≈ 18.4 µM).
In the case of `O=C(O)c1cn(C2CC2)c2cc(N3CCNCC3)c(F)cc2c1=O` [CIPROFLOXACIN], the MIC is reported as 0.9 µg/mL (≈ 2.72 µM).

What follows are molecules tested on Candida albicans (assay: Antifungal activity against Candida albicans MTCC 3017 after 24 hrs by agar well diffusion method). Conditions: MTCC 3017, 24 h.
Format: functional
`CCOC(=O)c1c(N2CCN(c3ccccc3F)CC2)c2ccccc2n(C)c1=O` gave an MIC of 3.9 µg/mL (≈ 9.52 µM).
Work on `CCOC(=O)c1c(N2CCN(c3ccc(F)cc3)CC2)c2ccccc2n(CC)c1=O` yielded an MIC of 3.9 µg/mL (≈ 9.21 µM).
`CCOC(=O)c1c(N2CCN(c3ccccc3C(F)(F)F)CC2)c2ccccc2n(CC)c1=O` showed an MIC of 7.8 µg/mL (≈ 16.5 µM).

These molecules were tested on Bacillus subtilis (assay: Bactericidal activity against gram-positive Bacillus subtilis MTCC 121 incubated for 24 hrs followed by microbial sample growth at Mueller Hinton agar plates). Conditions: MTCC 121, 24 h.
Format: functional
`CCOC(=O)c1c(N2CCN(c3ccccc3F)CC2)c2ccccc2n(C)c1=O` gave an MBC of 7.8 µg/mL (≈ 19 µM).
`CCOC(=O)c1c(N2CCN(c3ccc(F)cc3)CC2)c2ccccc2n(CC)c1=O` was tested, and the MBC was 7.8 µg/mL (≈ 18.4 µM).
`CCOC(=O)c1c(N2CCN(c3ccccc3C(F)(F)F)CC2)c2ccccc2n(CC)c1=O` gave an MBC of 15.6 µg/mL (≈ 32.9 µM).
With `O=C(O)c1cn(C2CC2)c2cc(N3CCNCC3)c(F)cc2c1=O` [CIPROFLOXACIN] the MBC was 0.9 µg/mL (≈ 2.72 µM).

Each molecule was assayed on Staphylococcus aureus (assay: Bactericidal activity against gram-positive Staphylococcus aureus MTCC 96 incubated for 24 hrs followed by microbial sample growth at Mueller Hinton agar plates). Conditions: MTCC 96, 24 h.
Format: functional
In the case of `CCOC(=O)c1c(N2CCN(c3ccccc3F)CC2)c2ccccc2n(C)c1=O`, the MBC is reported as 7.8 µg/mL (≈ 19 µM).
For `CCOC(=O)c1c(N2CCN(c3ccc(F)cc3)CC2)c2ccccc2n(CC)c1=O`, the MBC was 7.8 µg/mL (≈ 18.4 µM).
`CCOC(=O)c1c(N2CCN(c3ccccc3OC)CC2)c2ccccc2n(CC)c1=O` showed an MBC of 7.8 µg/mL (≈ 17.9 µM).
`CCOC(=O)c1c(N2CCN(C(=O)OC(C)(C)C)CC2)c2ccccc2n(C)c1=O` gave an MBC of 7.8 µg/mL (≈ 18.8 µM).
With `CCOC(=O)c1c(N2CCN(c3ccccc3F)CC2)c2ccccc2n(CC)c1=O` the MBC was 7.8 µg/mL (≈ 18.4 µM).
With `O=C(O)c1cn(C2CC2)c2cc(N3CCNCC3)c(F)cc2c1=O` [CIPROFLOXACIN] the MBC was 0.9 µg/mL (≈ 2.72 µM).

The molecules below were run on Staphylococcus aureus (assay: Bactericidal activity against gram-positive Staphylococcus aureus MLS-16 MTCC 2940 incubated for 24 hrs followed by microbial sample growth at Mueller Hinton agar plates). Conditions: MLS-16 MTCC 2940, 24 h.
Format: functional
For `CCOC(=O)c1c(N2CCN(c3ccccc3F)CC2)c2ccccc2n(C)c1=O`, the MBC was 15.6 µg/mL (≈ 38.1 µM).
`CCOC(=O)c1c(N2CCN(c3ccc(F)cc3)CC2)c2ccccc2n(CC)c1=O` showed an MBC of 7.8 µg/mL (≈ 18.4 µM).
`O=C(O)c1cn(C2CC2)c2cc(N3CCNCC3)c(F)cc2c1=O` [CIPROFLOXACIN] was tested, and the MBC was 0.9 µg/mL (≈ 2.72 µM).

Each molecule was assayed on Micrococcus luteus (assay: Bactericidal activity against gram-positive Micrococcus luteus MTCC 2470 incubated for 24 hrs followed by microbial sample growth at Mueller Hinton agar plates). Conditions: MTCC 2470, 24 h.
Format: functional
Molecule `CCOC(=O)c1c(N2CCN(c3ccccc3F)CC2)c2ccccc2n(C)c1=O` has an MBC of 7.8 µg/mL (≈ 19 µM).
For `CCOC(=O)c1c(N2CCN(c3ccc(F)cc3)CC2)c2ccccc2n(CC)c1=O`, the MBC was 7.8 µg/mL (≈ 18.4 µM).
Molecule `O=C(O)c1cn(C2CC2)c2cc(N3CCNCC3)c(F)cc2c1=O` [CIPROFLOXACIN] has an MBC of 0.9 µg/mL (≈ 2.72 µM).

What follows are molecules tested on Escherichia coli (assay: Bactericidal activity against gram-negative Escherichia coli MTCC 739 incubated for 24 hrs followed by microbial sample growth at Mueller Hinton agar plates). Conditions: MTCC 739, 24 h.
Format: functional
`CCOC(=O)c1c(N2CCN(c3ccccc3F)CC2)c2ccccc2n(C)c1=O` was tested, and the MBC was 7.8 µg/mL (≈ 19 µM).
`CCOC(=O)c1c(N2CCN(c3ccc(F)cc3)CC2)c2ccccc2n(CC)c1=O` was tested, and the MBC was 7.8 µg/mL (≈ 18.4 µM).
For `CCOC(=O)c1c(N2CCN(c3ccccc3C(F)(F)F)CC2)c2ccccc2n(CC)c1=O`, the MBC was 15.6 µg/mL (≈ 32.9 µM).
`O=C(O)c1cn(C2CC2)c2cc(N3CCNCC3)c(F)cc2c1=O` [CIPROFLOXACIN] was tested, and the MBC was 0.9 µg/mL (≈ 2.72 µM).

What follows are molecules tested on Raoultella planticola (assay: Bactericidal activity against gram-negative Klebsiella planticola MTCC 530 incubated for 24 hrs followed by microbial sample growth at Mueller Hinton agar plates). Conditions: MTCC 530, 24 h.
Format: functional
Molecule `CCOC(=O)c1c(N2CCN(c3ccc(F)cc3)CC2)c2ccccc2n(CC)c1=O` has an MBC of 7.8 µg/mL (≈ 18.4 µM).
Molecule `CCOC(=O)c1c(N2CCN(c3ccccc3F)CC2)c2ccccc2n(CC)c1=O` has an MBC of 7.8 µg/mL (≈ 18.4 µM).
With `O=C(O)c1cn(C2CC2)c2cc(N3CCNCC3)c(F)cc2c1=O` [CIPROFLOXACIN] the MBC was 0.9 µg/mL (≈ 2.72 µM).

Each molecule was assayed on Candida albicans (assay: Fungicidal activity against Candida albicans MTCC 3017 incubated for 24 hrs followed by microbial sample growth Sabouraud dextrose agar plates). Conditions: MTCC 3017, 24 h.
Format: functional
`CCOC(=O)c1c(N2CCN(c3ccccc3F)CC2)c2ccccc2n(C)c1=O` gave an MFC of 7.8 µg/mL (≈ 19 µM).
For `CCOC(=O)c1c(N2CCN(c3ccc(F)cc3)CC2)c2ccccc2n(CC)c1=O`, the MFC was 7.8 µg/mL (≈ 18.4 µM).
In the case of `CCOC(=O)c1c(N2CCN(c3ccccc3C(F)(F)F)CC2)c2ccccc2n(CC)c1=O`, the MFC is reported as 15.6 µg/mL (≈ 32.9 µM).

What follows are molecules tested against T1, 4,4'-diapophytoene synthase (Staphylococcus aureus, UniProt A9JQL9) (assay: Inhibition of Staphylococcus aureus dehydrosqualene synthase). Conditions: not given.
T1 sequence (A9JQL9 whole entry): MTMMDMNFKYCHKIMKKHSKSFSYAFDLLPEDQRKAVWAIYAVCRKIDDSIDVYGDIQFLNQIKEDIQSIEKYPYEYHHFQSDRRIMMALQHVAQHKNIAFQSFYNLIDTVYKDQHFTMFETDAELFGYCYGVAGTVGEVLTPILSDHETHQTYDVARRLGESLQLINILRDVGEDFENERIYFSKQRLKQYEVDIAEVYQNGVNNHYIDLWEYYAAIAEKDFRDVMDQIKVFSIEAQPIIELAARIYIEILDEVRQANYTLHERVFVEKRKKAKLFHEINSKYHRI
With `CCOC(=O)c1c(N2CCN(c3ccccc3F)CC2)c2ccccc2n(C)c1=O` the Ki was 7.87 µM.
`CCOC(=O)c1c(N2CCN(c3ccc(F)cc3)CC2)c2ccccc2n(CC)c1=O` was tested, and the Ki was 6.89 µM.
For `CCOC(=O)c1c(N2CCN(c3ccccc3OC)CC2)c2ccccc2n(CC)c1=O`, the Ki was 14 µM.
In the case of `CCOC(=O)c1c(N2CCN(C(=O)OC(C)(C)C)CC2)c2ccccc2n(C)c1=O`, the Ki is reported as 5.19 µM.
For `CCOC(=O)c1c(N2CCN(c3ccccc3F)CC2)c2ccccc2n(CC)c1=O`, the Ki was 8.33 µM.

Each molecule was assayed on Pseudomonas aeruginosa (assay: microbe, parasite or virus in culture). Conditions: MTCC 2453, 24 h.
Description: Bactericidal activity against gram-negative Pseudomonas aeruginosa MTCC 2453 incubated for 24 hrs followed by microbial sample growth at Mueller Hinton agar plates
`O=C(O)c1cn(C2CC2)c2cc(N3CCNCC3)c(F)cc2c1=O` [CIPROFLOXACIN] gave an MBC of 0.9 µg/mL (≈ 2.72 µM).
